# Patent US10563263B2, “Genetic polymorphisms associated with statin response and cardiovascular diseases, methods of detection and uses thereof” (CELERA CORPORATION, priority 2010, dated 2020)
# System: CVD (CHD or stroke)
# Experiment: Meta-analysis of CARE and WOSCOPS combined, synergy index, CVD endpoint
# Assay type: in vivo, human
# Text: Tables 4-5 provide meta-analyses of CARE and WOSCOPS combined (2nd section of each table) for two endpoints (CHD and CVD) and three genetic models (dominant, recessive, and additive), as well as logistic regression analyses of CARE (3rd section of each table) and WOSCOPS (4th section of each table) individually.
# Tables 12 and 17 provide results of meta-analysis of the CARE and WOSCOPS sample sets combined by direct genotyping and by imputing genotypes.
# “P” indicates the p-value, and “P(R)” (or “P.R.”) indicates the p-value random effect. Both of these are p-values corresponding to a statistical test of whether the combined synergy index is equal to one but use different assumptions to derive the p-value. “P” is calculated using a fixed effects model, and “P(R)” is calculated using a random effects model.
# “OR” indicates the odds ratio (synergy index) calculated from a fixed effects model, and “OR(R)” (or “OR.R.”) indicates the odds ratio (synergy index) calculated from a random effects model.
compound,measurement,setting,value
"CC[C@H](C)C(=O)O[C@H]1C[C@H](O)C=C2C=C[C@H](C)[C@H](CC[C@@H](O)C[C@@H](O)CC(=O)O)[C@H]21 [Pravastatin, pravastatin]",OR(R),rs483159 allele T DOMINANT Imputed,1.4202
same,OR(R),rs489441 allele G ADDITIVE Imputed,1.4992
same,OR(R),rs489441 allele G DOMINANT Imputed,1.6072
same,OR(R),"rs937890 allele G (A1), DOMINANT, Imputed",0.6731
same,OR(R),"rs949016 allele C (A1), ADDITIVE, Imputed",1.5082
same,OR(R),"rs966583 allele A (A1), ADDITIVE, Imputed",0.7272
same,OR(R),"rs966583 allele A (A1), DOMINANT, Imputed",0.5916
same,OR(R),"rs974130 allele A (A1), RECESSIVE, Genotyped",2.0112
same,OR(R),"rs977160 allele T (A1), ADDITIVE, Imputed",1.5465
same,OR(R),"rs985375 allele A (A1), GENOTYPIC, Imputed",2.8891
same,OR(R),rs4760895 allele A ADDITIVE Imputed,0.7392
same,OR(R),rs4760895 allele A DOMINANT Imputed,0.6285
same,OR(R),rs4760895 allele A GENOTYPIC Imputed,0.574
same,OR(R),rs4764738 allele A ADDITIVE Imputed,1.4051
same,OR(R),rs4764738 allele A GENOTYPIC Imputed,1.9728
same,OR(R),rs4764974 allele T ADDITIVE Imputed,1.3855
same,OR(R),rs4764974 allele T GENOTYPIC Imputed,1.9196
same,OR(R),rs4798366 allele G RECESSIVE Imputed,1.8332
same,OR(R),rs4836502 allele T DOMINANT Imputed,0.6712
same,OR(R),rs4836507 allele C DOMINANT Imputed,0.6775
same,OR(R),rs4836744 allele A ADDITIVE Imputed,0.7345
same,OR(R),rs4836744 allele A DOMINANT Imputed,0.6854
same,OR(R),rs4848944 allele C RECESSIVE Genotyped,0.5819
same,OR(R),rs4851529 allele A DOMINANT Imputed,0.6476
same,OR(R),rs4851531 allele T DOMINANT Imputed,0.6602
same,OR(R),rs4858046 allele T GENOTYPIC Genotyped,2.0533
same,OR(R),rs4878214 allele A ADDITIVE Imputed,0.6477
same,OR(R),rs4880803 allele A ADDITIVE Imputed,0.7694
same,OR(R),rs4896568 allele T DOMINANT Imputed,0.6231
same,OR(R),rs4938851 allele T DOMINANT Imputed,1.4515
same,OR(R),rs4964416 allele C DOMINANT Imputed,0.6251
same,OR(R),rs5756669 allele C DOMINANT Imputed,1.6531
same,OR(R),rs6033138 allele C ADDITIVE Imputed,1.3837
same,OR(R),rs6033138 allele C GENOTYPIC Imputed,1.9484
same,OR(R),rs6033138 allele C RECESSIVE Imputed,1.6769
same,OR(R),rs6040619 allele C ADDITIVE Imputed,1.3881
same,OR(R),rs6040619 allele C GENOTYPIC Imputed,2.0334
same,OR(R),rs6040619 allele C RECESSIVE Imputed,1.7879
same,OR(R),rs6040625 allele T ADDITIVE Imputed,1.3888
same,OR(R),rs6040625 allele T GENOTYPIC Imputed,2.0214
same,OR(R),rs6040625 allele T RECESSIVE Imputed,1.7684
same,OR(R),rs6040630 allele A ADDITIVE Imputed,1.3767
same,OR(R),rs6040630 allele A GENOTYPIC Imputed,1.9741
same,OR(R),rs6040630 allele A RECESSIVE Imputed,1.7241
same,OR(R),rs6040633 allele A ADDITIVE Imputed,1.3703
same,OR(R),rs6040633 allele A GENOTYPIC Imputed,1.9475
same,OR(R),rs6040633 allele A RECESSIVE Imputed,1.6999
same,OR(R),rs6040634 allele T ADDITIVE Imputed,1.3722
same,OR(R),rs6040634 allele T GENOTYPIC Imputed,1.9531
same,OR(R),rs6040634 allele T RECESSIVE Imputed,1.7021
same,OR(R),rs6040636 allele T ADDITIVE Imputed,1.3761
same,OR(R),rs6040636 allele T GENOTYPIC Imputed,1.9585
same,OR(R),rs6040636 allele T RECESSIVE Imputed,1.7021
same,OR(R),rs6040638 allele C ADDITIVE Imputed,1.3722
same,OR(R),rs6040638 allele C GENOTYPIC Imputed,1.9531
same,OR(R),rs6040638 allele C RECESSIVE Imputed,1.7021
same,OR(R),rs6040644 allele A ADDITIVE Imputed,1.3722
same,OR(R),"rs9309988 allele G (A1), DOMINANT, Imputed",1.9381
same,OR(R),"rs9309989 allele C (A1), DOMINANT, Genotyped",1.9491
same,OR(R),"rs9310221 allele A (A1), DOMINANT, Imputed",1.8519
same,OR(R),"rs9327555 allele T (A1), DOMINANT, Imputed",0.5753
same,OR(R),"rs9454967 allele G (A1), ADDITIVE, Imputed",2.1926
same,OR(R),"rs9454967 allele G (A1), DOMINANT, Imputed",2.4795
same,OR(R),"rs9471295 allele T (A1), DOMINANT, Imputed",1.5391
same,OR(R),"rs9477007 allele A (A1), ADDITIVE, Imputed",1.429
same,OR(R),"rs9477007 allele A (A1), GENOTYPIC, Imputed",2.0759
same,OR(R),"rs9487279 allele T (A1), DOMINANT, Imputed",0.5948
same,OR(R),"rs9555973 allele G (A1), ADDITIVE, Imputed",0.5479
same,OR(R),"rs9555973 allele G (A1), DOMINANT, Imputed",0.5157
same,OR(R),"rs9557510 allele G (A1), ADDITIVE, Imputed",1.6102
same,OR(R),"rs9557510 allele G (A1), DOMINANT, Imputed",1.7706
same,OR(R),"rs9560584 allele T (A1), DOMINANT, Imputed",0.512
same,OR(R),"rs9588770 allele T (A1), DOMINANT, Imputed",0.5187
same,OR(R),"rs9588848 allele C (A1), ADDITIVE, Imputed",0.5369
same,OR(R),"rs9588848 allele C (A1), DOMINANT, Imputed",0.5009
same,OR(R),"rs9812206 allele G (A1), ADDITIVE, Imputed",0.4469
same,OR(R),"rs9812206 allele G (A1), DOMINANT, Imputed",0.4369
same,OR(R),"rs9813552 allele G (A1), ADDITIVE, Imputed",0.4493
same,OR(R),"rs9813552 allele G (A1), DOMINANT, Imputed",0.4387
same,OR(R),"rs9815037 allele T (A1), ADDITIVE, Imputed",0.4461
same,OR(R),"rs9815037 allele T (A1), DOMINANT, Imputed",0.4354
same,OR(R),"rs9825349 allele A (A1), ADDITIVE, Imputed",0.4461
same,OR(R),"rs9825349 allele A (A1), DOMINANT, Imputed",0.4354
same,OR(R),"rs9834217 allele T (A1), ADDITIVE, Imputed",0.4466
same,OR(R),"rs9834217 allele T (A1), DOMINANT, Imputed",0.4359
same,OR(R),"rs9840460 allele T (A1), ADDITIVE, Imputed",0.4461
same,OR(R),"rs9840460 allele T (A1), DOMINANT, Imputed",0.4354
same,OR(R),"rs9840756 allele A (A1), ADDITIVE, Imputed",0.4458
same,OR(R),"rs9840756 allele A (A1), DOMINANT, Imputed",0.435
same,OR(R),"rs9844801 allele C (A1), DOMINANT, Imputed",1.9381
same,OR(R),"rs9869187 allele C (A1), ADDITIVE, Imputed",0.4651
same,OR(R),"rs9869187 allele C (A1), DOMINANT, Imputed",0.4704
same,OR(R),"rs9872327 allele T (A1), DOMINANT, Imputed",1.9381
same,OR(R),"rs9881685 allele A (A1), ADDITIVE, Imputed",0.4438
same,OR(R),"rs9881685 allele A (A1), DOMINANT, Imputed",0.4332
same,OR(R),"rs9909499 allele C (A1), DOMINANT, Imputed",1.4669
same,OR(R),"rs9911847 allele G (A1), DOMINANT, Imputed",0.6755
same,OR(R),"rs9946886 allele G (A1), RECESSIVE, Imputed",0.3084
same,OR(R),"rs9958823 allele A (A1), ADDITIVE, Imputed",1.5292
same,OR(R),"rs9965248 allele T (A1), ADDITIVE, Imputed",1.4965
